{"source": "patent US11135186B2", "about": "“Regulators of the endoplasmic reticulum proteostasis network” (The Scripps Research Institute, priority 2015, dated 2021)", "key": {"ATF6": {"tested_on": "ATF6", "assay": "Immunoblot of the 50 kDa ATF6 fragment", "assay_type": "cell-based", "settings": "immunoblotting", "procedure": "For immunoblotting, cells were lysed in 50 mM Tris buffer, pH 7.5 containing 0.1% TritonX (Fisher Scientific) and supplemented with protease inhibitor cocktail (Roche). For immunoblots of endogenous ATF6, cells were washed in PBS containing protease inhibitor cocktail and 10 μM MG-132 and subsequently lysated in 1× Laemmli buffer, supplemented in the same way, by repeating cycles of boiling and vortexing. Protein lysate concentrations were normalized by Bradford assays (Bio-Rad). Lysates or media were boiled for 10 min in Laemmli buffer+100 mM DTT before loading onto SDS-PAGE gel. Proteins were transferred from gel slabs to nitrocellulose, and the Odyssey Infrared Imaging System (Li-Cor Biosciences) was used to detect proteins of interest."}, "[1]": {"tested_on": "ERSE-FLuc reporter (ATF6 arm of the UPR)", "assay": "ERSE-FLuc reporter, 96-well, HEK293T-Rex cells (SAR and S1P inhibition)", "assay_type": "cell-based", "settings": "HEK293T-Rex; 10 μM", "procedure": "HEK293T-Rex cells incorporating the ERSE-FLuc reporter and HEK293^DAX cells were plated approximately 20,000 cells/well in flat-bottomed, black 96-well assay plates (Costar, Corning, Inc.) overnight prior to compound administration. Cells were treated with compounds as described for 12-18 h then the plates were equilibrated to room temperature and 50 μL of SteadyLite (PerkinElmer) was added to each well. Luminescence activity was measured in a Safire II microplate reader with a 1000 ms integration time."}, "[2]": {"tested_on": "GFP-ATF6 in U2OS-GFP-ATF6 cells", "assay": "ATF6 nuclear localization, high-content imaging", "assay_type": "cell-based", "settings": "10 μM, 5 h", "procedure": "300 μL of 1.375×10^4 U2OS-GFP-ATF6 cells per ml were plated per well in 96 well imaging plate (ibidi 89626) and sealed with breathable seals (E&K Scientific T896100) two days prior to drug addition. Immediately prior to addition to cells, compounds were diluted to 6× in media from 500×DMSO stock and 60 μL 6× was added to cells for 1× final (0.2% DMSO).\nAfter 5h, media was removed and cells were fixed in 4% PFA (Electron Microscopy Sciences 15714) in PHEM buffer (60 mM PIPES, 25 mM HEPES, 10 mM EGTA, 2 mM MgCl2-hexahydrate, pH 6.9) for 15 minutes at RT. […]\nImages were analyzed using CellProfiler^7, MATLAB R2014a and GraphPad Prism 5. […] The ratio of the GFP intensity in the nucleus versus the ER was calculated for each cell and plotted as a histogram per well. A threshold for the minimum ratio of nuclear to ER signal corresponding to an activated (i.e. nuclear localized ATF6) cell was calculated as the minimum nuclear: ER ratio greater than 1 where the number of ER stressed cells (Tg) was greater than the corresponding unstressed control. Percent activation per well was calculated as the percentage of cells per well with a nuclear: ER ratio greater than the calculated threshold for that plate. […]"}, "ALMC-2 cells": {"tested_on": "ALMC-2 cells", "assay": "ALMC-2 cell viability (CellTiter-Glo)", "assay_type": "cell-based, human", "settings": "10 μM", "procedure": "HepG2 cells were plated at 5,000 cells/well in a translucent, flat-bottomed 96 well plate, and treated for 48 hr with vehicle, 10 μM Tg or 10 μM ER proteostasis regulator. ALMC-2 or KAS-6/1 cells were plated at 33,000 cells/well in 96-well plates then treated with proteostasis regulators for 16 h as described. Cell metabolic activity was measured using the CellTiter-Glo assay (Promega), which reports on intracellular ATP concentration. CellTiter-Glo reagent was added to cell culture media at a 1:1 ratio and incubated for 2 minutes on an orbital shaker to induce cell lysis. The plate was then incubated at room temperature for 10 minutes to stabilize the luminescent signal and read on a Tecan F200 Pro microplate reader."}, "[3]": {"tested_on": "ALLC (amyloidogenic light chain)", "assay": "ALLC secretion from ALMC-2 cells after cycloheximide administration", "assay_type": "cell-based, human", "settings": "absence of new protein synthesis"}}}
{"smiles": "O=[N+]([O-])c1ccc(N/N=C/c2ccccc2O)cc1", "note": "[Compound 263]", "values": [{"measurement": "accumulation of the 50 kDa ATF6 fragment (S1P/S2P proteolysis)", "setting": "ATF6", "value": "increased accumulation"}, {"measurement": "ERSE reporter activity relative to 263", "setting": "[1]", "value": "slightly increase"}, {"measurement": "nuclear fraction of ATF6-GFP (ATF6 nuclear translocation)", "setting": "[2]", "value": "significantly increased"}]}
{"smiles": "Cc1ccc(O)c(N/C=C/C(=O)c2ccc(F)cc2)c1", "note": "[Compound 132]", "values": [{"measurement": "reduction in cell viability", "setting": "ALMC-2 cells", "value": 45, "unit": "%"}, {"measurement": "accumulation of the 50 kDa ATF6 fragment (S1P/S2P proteolysis)", "setting": "ATF6", "value": "increased accumulation"}, {"measurement": "nuclear fraction of ATF6-GFP (ATF6 nuclear translocation)", "setting": "[2]", "value": "significantly increased"}]}
{"smiles": "Cc1ccc(O)c(NC(=O)CCc2ccccc2)c1", "note": "[Compound 147]", "values": [{"measurement": "cell viability (in words)", "setting": "ALMC-2 cells", "value": "do not significantly affect"}, {"measurement": "reduction in ALLC secretion after cycloheximide", "setting": "[3]", "value": "~30", "unit": "%"}]}
